The record followed here is doi:10.1101/2022.12.11.519956v1 (biorxiv, 2022).

The assay addresses T1, SauUSI (Staphylococcus aureus, UniProt A0A0H2XK17).
T1 sequence (A0A0H2XK17 1-953): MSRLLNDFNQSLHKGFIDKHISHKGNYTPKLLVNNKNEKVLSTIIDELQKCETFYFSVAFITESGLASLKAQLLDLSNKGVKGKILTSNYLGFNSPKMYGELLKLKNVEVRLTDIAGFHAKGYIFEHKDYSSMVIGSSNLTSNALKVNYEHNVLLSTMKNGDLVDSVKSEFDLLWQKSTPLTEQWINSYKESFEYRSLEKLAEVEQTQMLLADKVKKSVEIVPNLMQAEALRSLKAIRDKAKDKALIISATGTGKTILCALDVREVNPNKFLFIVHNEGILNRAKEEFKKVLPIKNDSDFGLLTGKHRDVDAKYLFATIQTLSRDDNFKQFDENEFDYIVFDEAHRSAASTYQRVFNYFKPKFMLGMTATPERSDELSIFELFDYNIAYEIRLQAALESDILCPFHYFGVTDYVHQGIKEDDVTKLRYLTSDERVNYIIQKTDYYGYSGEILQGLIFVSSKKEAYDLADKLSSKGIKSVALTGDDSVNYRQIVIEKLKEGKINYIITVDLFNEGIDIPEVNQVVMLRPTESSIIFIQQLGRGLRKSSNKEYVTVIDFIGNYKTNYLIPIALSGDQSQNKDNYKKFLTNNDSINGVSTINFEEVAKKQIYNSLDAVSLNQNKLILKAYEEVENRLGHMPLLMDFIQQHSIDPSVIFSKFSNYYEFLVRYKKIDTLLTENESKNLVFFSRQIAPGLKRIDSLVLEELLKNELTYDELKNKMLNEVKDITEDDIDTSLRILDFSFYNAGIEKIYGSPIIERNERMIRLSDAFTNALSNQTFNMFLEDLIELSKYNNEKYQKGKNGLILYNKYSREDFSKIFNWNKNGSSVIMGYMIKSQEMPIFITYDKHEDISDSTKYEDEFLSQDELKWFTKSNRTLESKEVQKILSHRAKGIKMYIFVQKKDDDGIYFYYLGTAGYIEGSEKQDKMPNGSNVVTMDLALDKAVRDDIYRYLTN
As to the kind of experiment: biochemical.

On to `Nc1ncnc2c1ncn2[C@@H]1O[C@H](COP(=O)(O)OP(=O)(O)OP(=O)(O)O)[C@@H](O)[C@H]1O` [ATP], for which the IC50 – broadly, the point on the concentration scale where inhibition reaches its midpoint – is roughly 760 µM.
